Results on twelve compounds are retold here after patent US9642889B2, “Macrocyclic inhibitors of Flaviviridae viruses” (Selcia Limited, priority 2012, dated 2017).

The conditions of data set [1]: rcm bond; 22-membered ring; Hoveyda-Grubbs II; 1,2-dichloroethane; 3.01 mM; 80.0 °C; 2 steps.
In data set [2] the test system is Huh-7 HCV replicon cells (1b replicon). Description: anti-HCV activity in Huh-7 cell line harboring a HCV replicon (luciferase readout). It is filed as cell-based. As to conditions: Hepatitis C virus; for EC50: Huh-7, 72 h, inhibition of viral replication, Huh-7 HCV replicon cells, 3 days, read-out: EC50; for inhibition at 1 µM: Huh-7, read-out: Replicon 1b % inhibition at 1 μM, 1b replicon, 1 μM compound. A general note: In antiviral work, replicon cells carry a viral genome segment that copies itself.

The next data set has as its target cyclophilin A (Homo sapiens, UniProt P62937). The data set can be described thus: Cyclophilin A TR-FRET competitive binding assay. As to conditions: competition with CsA-Cy5 for His-tagged CypA, two-hour incubation. How it is done: Cyclophilin A TR-FRET Competitive Binding Assay
Inhibitor potency was measured using a competitive binding assay with a time-resolved fluorescence resonance energy transfer (TR-FRET) readout. […] An IC50 value was calculated using a four-parameter logistic fit.
Background: TR-FRET usually uses a lanthanide donor and a delayed reading to cut background.

The conditions of data set [3]: rcm bond; 22-membered ring; Hoveyda-Grubbs II; 1,2-dichloroethane; 80.0 °C.

Like-named read-outs stand apart in the source and are kept apart here.

cyclophilin A, sequence (P62937 whole entry, species assumed): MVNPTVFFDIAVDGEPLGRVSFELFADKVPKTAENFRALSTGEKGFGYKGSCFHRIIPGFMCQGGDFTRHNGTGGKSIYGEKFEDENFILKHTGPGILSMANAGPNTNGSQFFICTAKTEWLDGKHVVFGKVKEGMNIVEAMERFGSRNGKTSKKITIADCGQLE

Regarding `CC(C)[C@@H]1NCCCC=Cc2cc3cc(ccc3cn2)[C@@H](C)OC(=O)[C@@H]2CCCN(N2)C(=O)[C@H](C)NC1=O`, the ring closure, yield of all isomers (from C=CCCCN[C@H](C(=O)N[C@@H](C)C(=O)N1CCC[C@@H](C(=O)O[C@H](C)c2ccc3cnc(C=C)cc3c2)N1)C(C)C, rcm bond, Hoveyda-Grubbs 2nd generation catalyst, toluene, 2.97 mM, 110.0 °C, 1.25 h) amounted to 56%. Compound `CC(C)[C@@H]1NS(=O)(=O)CC=Cc2cc3cc(ccc3cn2)[C@@H](C)OC(=O)[C@@H]2CCCN(N2)C(=O)[C@H](C)NC1=O` showed a ring closure, yield of all isomers (from C=CCS(=O)(=O)N[C@H](C(=O)N[C@@H](C)C(=O)N1CCC[C@@H](C(=O)O[C@H](C)c2ccc3cnc(C=C)cc3c2)N1)C(C)C, rcm bond, Hoveyda-Grubbs 2nd Generation Catalyst, toluene, 5.0 mM, 110.0 °C, 2.0 h) of 13%.

With `CC(C)[C@@H]1OC(=O)C(C)(C)CC=Cc2cc3cc(ccc3cn2)[C@@H](C)NC(=O)[C@@H]2CCCN(N2)C(=O)[C@H](C)NC1=O`, the ring closure, yield of all isomers (from C=CCC(C)(C)C(=O)O[C@H](C(=O)N[C@@H](C)C(=O)N1CCC[C@@H](C(=O)N[C@H](C)c2ccc3cnc(C=C)cc3c2)N1)C(C)C, rcm bond, Hoveyda-Grubbs 2nd generation catalyst, toluene, 3.08 mM, 110.0 °C, 3.0 h) was found to be 15%. Turning to `CC(C)[C@@H]1OC(=O)[C@H](C)C=Cc2cc3cc(ccc3cn2)[C@@H](C)NC(=O)[C@@H]2CCCN(N2)C(=O)[C@H](C)NC1=O`, the ring closure, yield of all isomers (from C=Cc1cc2cc([C@@H](C)NC(=O)[C@@H]3CCCN(C(=O)[C@H](C)NC(=O)[C@@H](OC(=O)[C@H](C)/C=C/C)C(C)C)N3)ccc2cn1, rcm bond, Hoveyda-Grubbs 2nd generation, toluene, 2.99 mM, 125.0 °C, 5.75 h) was 1%. Turning to `CC(C)[C@@H]1OC(=O)[C@H](C)[C@H](O[Si](C)(C)C(C)(C)C)CC/C=C/c2cccc(c2)[C@@H](C)NC(=O)[C@@H]2CCCN(N2)C(=O)[C@H](C)NC1=O`, in data set [1], the ring closure, isolated yield turned out to be 16%. Under “from C=CCC[C@@H](O[Si](C)(C)C(C)(C)C)[C@@H](C)C(=O)O[C@H](C(=O)N[C@@H](C)C(=O)N1CCC[C@@H](C(=O)N[C@H](C)c2cccc(C=C)c2)N1)C(C)C, rcm bond, Hoveyda-Grubbs 2nd generation catalyst, 1,2-dichloroethane, 3.01 mM, 80.0 °C, 2.0 h, 2 steps”, this compound showed a ring closure, yield of all isomers of 16%. Under “from C=CCCCO[C@H](C(=O)N[C@@H](C)C(=O)N1CCC[C@@H](C(=O)O[C@H](C)c2ccc3cnc(C=C)cc3c2)N1)C(C)C, rcm bond, Hoveyda-Grubbs 2nd Generation Catalyst, toluene, 3.0 mM, 100.0 °C, 0.58 h”, `CC(C)[C@@H]1OCCCC=Cc2cc3cc(ccc3cn2)[C@@H](C)OC(=O)[C@@H]2CCCN(N2)C(=O)[C@H](C)NC1=O` had a ring closure, yield of all isomers of 35%. For the setting “from C=CC[C@@H](CCC)C(=O)O[C@H](C(=O)N[C@@H](C)C(=O)N1CCC[C@@H](C(=O)N[C@H](C)c2ccc3cnc(C=C)cc3c2)N1)C(C)C, rcm bond, Hoveyda-Grubbs 2nd generation, toluene, 3.02 mM, 110.0 °C, 3.5 h”, `CCC[C@@H]1CC=Cc2cc3cc(ccc3cn2)[C@@H](C)NC(=O)[C@@H]2CCCN(N2)C(=O)[C@H](C)NC(=O)[C@H](C(C)C)OC1=O` returned a ring closure, yield of all isomers of 6%. For the compound `CO[C@@H]1C=Cc2cc3cc(ccc3cn2)[C@@H](C)NC(=O)[C@@H]2CCCN(N2)C(=O)[C@H](C)NC(=O)[C@H](C(C)C)OC(=O)[C@@H]1C`, under “from C=Cc1cc2cc([C@@H](C)NC(=O)[C@@H]3CCCN(C(=O)[C@H](C)NC(=O)[C@@H](OC(=O)[C@H](C)[C@@H](/C=C/C)OC)C(C)C)N3)ccc2cn1, rcm bond, Hoveyda-Grubbs 2nd generation, toluene, 2.98 mM, 125.0 °C, 6.0 h”, the ring closure, yield of all isomers was determined as 1%. Turning to `CO[C@@H]1CCC=Cc2cccc(c2)[C@@H](C)NC(=O)[C@@H]2CCCN(N2)C(=O)[C@H](C)NC(=O)[C@H](C(C)C)OC(=O)[C@@H]1C`, the ring closure, yield of all isomers (from C=CCC[C@@H](OC)[C@@H](C)C(=O)O[C@H](C(=O)N[C@@H](C)C(=O)N1CCC[C@@H](C(=O)N[C@H](C)c2cccc(C=C)c2)N1)C(C)C, rcm bond, Hoveyda-Grubbs 2nd generation, 1,2-dichloroethane, 2.96 mM, 85.0 °C, 5.0 h) stood at 32%.

As for `CO[C@H]1CC[C@@]2(/C=C/c3ccc4ccc(nc4c3)[C@@H](C)NC(=O)[C@@H]3CCCN(N3)C(=O)[C@H](C)NC(=O)[C@H](C(C)C)OC2=O)CC1`, the ring closure, yield of all isomers (from CO[C@H]1CC[C@](/C=C/c2ccc3ccc([C@@H](C)N)nc3c2)(C(=O)O[C@H](C(=O)N[C@@H](C)C(=O)N2CCC[C@@H](C(=O)O)N2)C(C)C)CC1, amide bond, HATU/DIPEA, DCM, 4 steps) came out at 6.2%.

One may read the EC50 as the concentration giving half of the maximal effect. For orientation: inhibition means the percentage by which the read-out fell short of the control. As usually defined, the IC50 is the point on the concentration scale where inhibition reaches its midpoint. Read a high IC50 as lower potency. On to `CC(C)[C@@H]1OC(=O)CCCC/C=C/c2cccc(c2)[C@@H](C)NC(=O)[C@@H]2CCCN(N2)C(=O)[C@H](C)NC1=O` [Compound 8, (E)-(2R,5S,11S,14S)-14-Isopropyl-2,11-dimethyl-15-oxa-3,9,12,28-tetraaza-tricyclo[21.3.1.1*5,9*]octacosa-1 (27),21,23,25-tetraene-4,10,13,16-tetraone], for which, in data set [2], the EC50 is less than 1000 nM and the inhibition at 1 µM was found to be 95%. At cyclophilin A, this compound yielded an IC50 of less than 100 nM. In data set [3], the ring closure, yield after HPLC stood at 15%. The ring closure, yield of all isomers (from C=CCCCCC(=O)O[C@H](C(=O)N[C@@H](C)C(=O)N1CCC[C@@H](C(=O)N[C@H](C)c2cccc(C=C)c2)N1)C(C)C, rcm bond, Hoveyda-Grubbs 2nd generation catalyst, 1,2-dichloroethane, 80.0 °C, 2.3 h) amounted to 15%. Turning to `CC(C)[C@H]1C(=O)N[C@@H](C)C(=O)N2CCC[C@H](N2)C(=O)N[C@H](C)c2cccc(c2)/C=C/CCCCC(=O)N1C` [Compound 17, (E)-(2R,5S,11 S,14S)-14-Isopropyl-2,11,15-trimethyl-3,9,12,15,28-pentaaza-tricyclo[21.3.1.1*5,9*]octacosa-1 (27),21,23,25-tetraene-4,10,13,16-tetraone], in data set [2], the EC50 is 1100 to 10000 nM and the inhibition at 1 µM stood at 39%. This compound also showed an IC50 on cyclophilin A of 101 to 1000 nM. In addition, the ring closure, yield of all isomers (from C=CCCCCC(=O)N(C)[C@H](C(=O)N[C@@H](C)C(=O)N1CCC[C@@H](C(=O)N[C@H](C)c2cccc(C=C)c2)N1)C(C)C, rcm bond, Hoveyda-Grubbs 2nd generation catalyst, 1,2-dichloroethane, 3.33 mM, 80.0 °C, 3.0 h) was determined as 43%.
